Test results as given in patent US20190381017A1, “Compositions Comprising Serdexmethylphenidate Conjugates And Methods Of Use Thereof” (KemPharm, Inc., priority 2018, published 2019).

Experiments:
[1] = tested on: recreational stimulant users; experiment: Intravenous abuse potential, VAS pharmacodynamic scores (Example 2); assay type: in vivo, human
From the text: “Drug liking” score, used herein, is the score used to assess the degree that a human participant likes a drug effect at the time the question is being asked (that is, at the moment). It is scored using a 0 to 100 point bipolar visual analogue scale (VAS) anchored in the center with a neutral anchor of “neither like nor dislike” (score of 50), on the left with “strong disliking” (score of 0) and on the right with “strong liking” (score of 100).
“Euphoria” or “Feeling High” score, used herein, is the term to describe the score used to assess the degree that a human participant is high at the time the question is being asked (that is, at the moment). It is scored using a 0 to 100 point unipolar visual analogue scale (VAS) anchored on the left with “Not at All” (score of 0) and on the right with “Extremely” (score of 100).
“Take Drug Again” score, used herein, is the term to describe the score used to assess the degree that a human participant wants to take the drug again, if given the opportunity, based on his/her opinion now, i.e., at the time the question is being asked. It is scored using a 0 to 100 point unipolar visual analogue scale (VAS) anchored on the left with “Definitely Would Not” (score of 0) and on the right with “Definitely Would” (score of 100).
“Overall Drug Liking” score, used herein, is the term to describe the score used to assess the human subject's global perception of drug liking (i.e., the subjective effects over the whole course of the drug experience including any carryover effects). Subjects respond to the statement “Overall, my liking for this drug is.” The question is scored using a 0-100 point bipolar VAS anchored on the left with “Strong Disliking” (score of 0); “Neither Like nor Dislike” (score of 50) in the middle, and anchored on the right with “Strong Liking” (score of 100). This scale has the advantage of the human subject being relatively less affected or unaffected by acute study drug effects (if any) by the time of the assessment.
“Good Effects” score, used herein, is the term to describe the score used to assess the degree that a human participant is feeling good drug effects at the time the question is being asked (that is, at the moment). Subjects respond to the statement “At this moment, I can feel good drug effects.” It is scored using a 0 to 100 point unipolar visual analogue scale (VAS) anchored on the left with “Not at All” (score of 0) and on the right with “Extremely” (score of 100).
Safety assessments were performed throughout the study.

[2] = tested on: healthy, nondependent, recreational stimulant users with intranasal insufflation experience; experiment: Intranasal abuse potential, VAS pharmacodynamic scores (Example 5); assay type: in vivo, human; details: SDX Cl 80 mg
Procedure: The study consisted of a Screening Period, an in-clinic Drug Discrimination Phase, a Treatment Phase, and a Follow-Up Visit.
Subjects who successfully completed the Screening Period returned to the clinic to complete the Drug Discrimination Phase. The Drug Discrimination Test was performed to ensure that subjects can differentiate between the effects of a single dose of d-methylphenidate hydrochloride and placebo, administered intranasally. Subjects who successfully completed the Drug Discrimination Phase remained as inpatients to enter the Treatment Phase. The Drug Discrimination Phase was a double-blind, intranasal, single-dose, 2-treatment, 2-period, 2-sequence, randomized, crossover design.
All subjects were required to fast for at least 8 hours prior to each dose of study drug until approximately 4 hours after each dose. Abuse potential measures and pharmacokinetic samples were collected at different times after the administration of study drug. Subjects who successfully completed the Drug Discrimination Phase and who qualified for the Treatment Phase remained as inpatients to enter the Treatment Phase.
The placebo dose consisted of 80 mg of microcrystalline cellulose to create the same volume.
On dosing days in the Treatment Phase, blood samples were collected for the measurement of the plasma concentrations of SDX, d-methylphenidate (d-MPH), l-methylphenidate (l-MPH) and ritalinic acid at predose and at 0.25, 0.5, 0.75, 1, 1.5, 2, 3, 4, 5, 6, 7, 8, 9, 10, 12, 16, 24, 36, and 48 hours±5 minutes after each dose of study drug. […] All VAS pharmacodynamic assessments except Take Drug Again and Overall Drug Liking were performed at 0.25, 0.5, 0.75, 1, 1.5, 2, 3, 4, 5, 6, 7, 8, 10, 12, 24 hours±5 minutes postdose. In addition, predose assessments of Feeling High, and Drowsiness/Alertness were collected. The Take Drug Again and Overall Drug Liking VAS assessments were performed at 12 and 24 hours±5 minutes postdose.

[3] = SDX Cl 30 mg vs placebo, bipolar VAS
[4] = SDX Cl 30 mg vs placebo, unipolar VAS
[5] = SDX Cl 30 mg, d-MPH HCl 15 mg, 12 hours
[6] = SDX Cl 30 mg, d-MPH HCl 15 mg, 12 hours, unipolar VAS
[7] = SDX Cl 30 mg, d-MPH HCl 15 mg, 24 hours
[8] = SDX Cl 30 mg, d-MPH HCl 15 mg, 24 hours, unipolar VAS
[9] = SDX Cl 30 mg, d-MPH HCl 15 mg, bipolar VAS
[10] = SDX Cl 30 mg, d-MPH HCl 15 mg, unipolar VAS
[11] = d-MPH HCl 40 mg, 12 hours, bipolar VAS
[12] = d-MPH HCl 40 mg, 24 hours, bipolar VAS

COC(=O)[C@H](c1ccccc1)[C@H]1CCCCN1C(=O)OC[n+]1cccc(C(=O)N[C@@H](CO)C(=O)O)c1.[Cl-] [serdexmethylphenidate chloride]
Mean difference Overall Drug Liking, 12 hours [1, 3]: 2.8 | Mean difference Overall Drug Liking, 24 hours [1, 3]: 1.2 | Mean difference Overall Drug Liking, Emax [1, 3]: 1.4 | Median difference Drug Liking Emax [1, 3]: 0.5 | Mean difference Feeling High Emax [1, 4]: 3.4 | Mean difference Good Effects Emax [1, 4]: 2.2 | Mean difference Take Drug Again, 12 hours [1, 4]: 9.1 | Mean difference Take Drug Again, 24 hours [1, 4]: 1.4 | Mean difference Take Drug Again, Emax [1, 4]: 6.0 | Mean Overall Drug Liking [1, 5]: 53.3 | Median Overall Drug Liking [1, 5]: 50.0 | Mean Take Drug Again [1, 6]: 17.5 | Median Take Drug Again [1, 6]: 0.0 | Mean Overall Drug Liking [1, 7]: 54.8 | Median Overall Drug Liking [1, 7]: 50.0 | Mean Take Drug Again [1, 8]: 15.7 | Median Take Drug Again [1, 8]: 0.0 | Drug Liking Emax (mean) [1, 9]: 56.6 | Drug Liking Emax (median) [1, 9]: 50.5 | Overall Drug Liking Emax (mean) [1, 9]: 55.2 | Overall Drug Liking Emax (median) [1, 9]: 50.0 | Feeling High Emax (mean) [1, 10]: 14.5 | Feeling High Emax (median) [1, 10]: 0.0 | Good Effects Emax (mean) [1, 10]: 15.5 | Good Effects Emax (median) [1, 10]: 0.0 | Take Drug Again Emax (mean) [1, 10]: 19.6 | Take Drug Again Emax (median) [1, 10]: 0.0 | Mean difference Drug Liking Emax vs placebo [2]: 19.9 | Mean difference Overall Drug Liking vs placebo, 12 hours [2]: 10.3 | Mean difference Overall Drug Liking vs placebo, Emax [2]: 11.5 | Mean difference Any Effect Emax vs placebo ([2]; d-MPH HCl 40 mg): 48.8 | Mean difference Ease of Nasal Insufflation Emax vs placebo ([2]; d-MPH HCl 40 mg): 59.0 | Mean difference Feeling Drowsy/Alert Emax vs placebo ([2]; d-MPH HCl 40 mg): 20.1 | Mean difference Feeling High Emax vs placebo ([2]; d-MPH HCl 40 mg): 40.7 | Mean difference Good Effects Emax vs placebo ([2]; d-MPH HCl 40 mg): 44.2 | Mean difference Overall Drug Liking vs placebo, 24 hours ([2]; d-MPH HCl 40 mg): 8.8 | Mean difference Take Drug Again vs placebo, 12 hours ([2]; d-MPH HCl 40 mg): 7.6 | Mean difference Take Drug Again vs placebo, 24 hours ([2]; d-MPH HCl 40 mg): 6.7 | Mean difference Take Drug Again vs placebo, Emax ([2]; d-MPH HCl 40 mg): 10.8 | Median difference Bad Effects Emax vs placebo ([2]; d-MPH HCl 40 mg): 9.5 | Mean Overall Drug Liking [2, 11]: 60.4 | Mean Take Drug Again [2, 11]: 56.7 | Median Overall Drug Liking [2, 11]: 58 | Median Take Drug Again [2, 11]: 51 | Mean Overall Drug Liking [2, 12]: 59.0 | Mean Take Drug Again [2, 12]: 55.8 | Median Overall Drug Liking [2, 12]: 55 | Median Take Drug Again [2, 12]: 50 | Drug Liking Emax (mean) ([2]; d-MPH HCl 40 mg, bipolar VAS): 71.0 | Drug Liking Emax (median) ([2]; d-MPH HCl 40 mg, bipolar VAS): 71 | Feeling Drowsy/Alert Emax (mean) ([2]; d-MPH HCl 40 mg, bipolar VAS): 71.2 | Feeling Drowsy/Alert Emax (median) ([2]; d-MPH HCl 40 mg, bipolar VAS): 71 | Overall Drug Liking Emax (mean) ([2]; d-MPH HCl 40 mg, bipolar VAS): 61.8 | Overall Drug Liking Emax (median) ([2]; d-MPH HCl 40 mg, bipolar VAS): 58 | Take Drug Again Emax (mean) ([2]; d-MPH HCl 40 mg, bipolar VAS): 60.0 | Take Drug Again Emax (median) ([2]; d-MPH HCl 40 mg, bipolar VAS): 56 | Drug Liking Emax (mean) ([2]; d-MPH HCl 40 mg, bipolar VAS, listed as SDX chloride): 71 | Any Effect Emax (mean) ([2]; d-MPH HCl 40 mg, unipolar VAS): 49.4 | Any Effect Emax (median) ([2]; d-MPH HCl 40 mg, unipolar VAS): 47 | Bad Effects Emax (mean) ([2]; d-MPH HCl 40 mg, unipolar VAS): 14.9 | Bad Effects Emax (median) ([2]; d-MPH HCl 40 mg, unipolar VAS): 1 | Ease of Nasal Insufflation (mean) ([2]; d-MPH HCl 40 mg, unipolar VAS): 65.8 | Ease of Nasal Insufflation (median) ([2]; d-MPH HCl 40 mg, unipolar VAS): 71 | Feeling High Emax (mean) ([2]; d-MPH HCl 40 mg, unipolar VAS): 43.4 | Feeling High Emax (median) ([2]; d-MPH HCl 40 mg, unipolar VAS): 36 | Good Effects Emax (mean) ([2]; d-MPH HCl 40 mg, unipolar VAS): 44.9 | Good Effects Emax (median) ([2]; d-MPH HCl 40 mg, unipolar VAS): 42
